“And” between values parts separate entries of the source, which are not always exact repeats. Equal entries are not always repeated.
What was measured:
[1] = Pharmacokinetics in whole blood, cynomolgus monkeys
[2] = Pharmacokinetics in whole blood, Sprague-Dawley rats; conditions: for % Parent AUCAll: Sprague-Dawley rat, metabolite AUCall/Parent AUCall x 100; for Whole Blood Conc. of compound 2: Sprague-Dawley rats; for concentration at 4 h / concentration at 8 h / concentration at 2 h / concentration at 0.5 h: Sprague-Dawley, rat, whole blood, po, Whole Blood Conc. of compound 2, Sprague-Dawley rats
[3] = Pharmacokinetics in whole blood, CD-1 mice; conditions: for % Parent AUCAll: CD1 mouse, metabolite AUCall/Parent AUCall x 100; for Whole Blood Conc. of compound 2: CD-1 mice; for concentration at 0.083 h / concentration at 2 h / concentration at 4 h / concentration at 8 h / concentration at 0.333 h / concentration at 0.5 h / concentration at 1 h: male, CD-1, mouse, whole blood, po, Whole Blood Conc. of compound 2, CD-1 mice
Procedure: The whole blood samples (0.5 mL) were collected into syringes that were prefilled with 2.5 mL of ice-cold 0.1% formic acid in acetonitrile. The volume ratio of the whole blood to 0.1% formic acid in acetonitrile was 1/5 (v/v). Samples were frozen (-70°C) until analyzed by LC-MS/MS.
Standard curves and quality control (QC) samples were prepared fresh on the day of analysis by serial dilution of the standard mixture in quenched whole blood (1 part of blood to 5 parts of 0.1% formic acid in acetonitrile) and centrifuged. […] The frozen study samples were thawed in an ice/water bath and centrifuged. Supernatant (50 μL) from standards, QC samples, and study samples was transferred to a 96-well plate and dried completely under nitrogen. The dried residues were reconstituted with 100 μL of 0.1% formic acid in water containing internal standard (5 ng/mL of ^15N/^13C3-RE-024-02) and analyzed by LC-MS/MS.
LC-MS/MS analysis for blood pharmacokinetic samples: Samples were analyzed using an Agilent 1100 binary pump (Agilent Technologies, Santa Clara, CA, USA), connected to an AB Sciex API 6500 mass spectrometer (SCIEX, Framingham, MA, USA). An electrospray ionization source was used, scanning in the positive mode. […] The chromatography column was a Varian Metasil AQ 120–5 C18 column, 5 μm, 50 x 2.00 mm (Part No. A0530050X020) at ambient temperature, with a 0.5 mL/min flow rate and a 20 μL injection volume. Mobile phase (A) consisted of 0.1% formic acid in water; while mobile phase (B) consisted of 0.1% formic acid in acetonitrile:water (9:1, v/v).
Quantitation of in vivo samples: Peak areas were integrated using Analyst software (AB Sciex, Concord, Ontario, Canada). […] Calibration standards (at a minimum 7 per curve) were fit by linear regression with (1/x^2) weighting. QC samples were used (triplicate) at 3 concentrations for all tandem mass spectrometry (MS/MS) runs.
Pharmacokinetic calculations: PK analysis was performed using Phoenix WinNonlin®, Build 6.3.0.395 (Certara, Princeton, NJ, USA) using a non-compartmental model (PO dose = model 200 for extravascular dosing). […] Post-dose concentrations below the limit of quantitation (BLQ) were omitted from calculation.

[4] = 100 mg/kg, single 100 mg/kg RE-024-02 PO, LLOQ 3 ng/mL
[5] = 100 mg/kg, single 100 mg/kg RE-024-02 PO, LLOQ 10.2 nM

Structure (SMILES): COC(=O)CCNC(=O)[C@@H]1OP(=O)(O)OCC1(C)C [Compound 2]
- % Parent AUCAll ([1]; Cynomolgus monkey, 300 mg/kg PO, metabolite AUCall/Parent AUCall x 100): 132%
- concentration at 0.5 h ([1]; cynomolgus monkey, whole blood, po, 300 mg/kg, Concentration of compound 2 in whole blood, cynomolgus monkeys, single oral 300 mg/kg fosmetpantotenate, 0.5 hr, LLOQ 2.03 nM): 1860 nM
- concentration at 1 h ([1]; cynomolgus monkey, whole blood, po, 300 mg/kg, Concentration of compound 2 in whole blood, cynomolgus monkeys, single oral 300 mg/kg fosmetpantotenate, 1 hr, LLOQ 2.03 nM): 1970 nM
- concentration at 4 h ([1]; cynomolgus monkey, whole blood, po, 300 mg/kg, Concentration of compound 2 in whole blood, cynomolgus monkeys, single oral 300 mg/kg fosmetpantotenate, 4 hr, LLOQ 2.03 nM): 2350 nM
- concentration at 8 h ([1]; cynomolgus monkey, whole blood, po, 300 mg/kg, Concentration of compound 2 in whole blood, cynomolgus monkeys, single oral 300 mg/kg fosmetpantotenate, 8 hr, LLOQ 2.03 nM): 1150 nM
- Concentration of compound 2 in whole blood ([1]; cynomolgus monkeys, single oral 300 mg/kg fosmetpantotenate, 0.083 hr, LLOQ 2.03 nM): BQL
- Concentration of compound 2 in whole blood ([1]; cynomolgus monkeys, single oral 300 mg/kg fosmetpantotenate, 0.5 hr, LLOQ 2.03 nM, 300 mg/kg): 1210.45 nM
- Concentration of compound 2 in whole blood ([1]; cynomolgus monkeys, single oral 300 mg/kg fosmetpantotenate, 1 hr, LLOQ 2.03 nM, 300 mg/kg): 2023.57 nM
- Concentration of compound 2 in whole blood ([1]; cynomolgus monkeys, single oral 300 mg/kg fosmetpantotenate, 4 hr, LLOQ 2.03 nM, 300 mg/kg): 4441.22 nM
- Concentration of compound 2 in whole blood ([1]; cynomolgus monkeys, single oral 300 mg/kg fosmetpantotenate, 8 hr, LLOQ 2.03 nM, 300 mg/kg): 996.85 nM
- % Parent AUCAll ([2]; 300 mg/kg PO): 1,250%
- % Parent AUCAll ([2]; 700 mg/kg PO): 220%
- Whole Blood Conc. of compound 2 ([2]; single 300 mg/kg RE-024-02 PO, time 2, LLOQ 3 ng/mL, 300 mg/kg): 38.46 ng/mL and 47.10 ng/mL
- Whole Blood Conc. of compound 2 ([2]; single 300 mg/kg RE-024-02 PO, time 2, LLOQ 10.2 nM, 300 mg/kg): 130.27 nM and 159.54 nM
- Whole Blood Conc. of compound 2 ([2]; single 300 mg/kg RE-024-02 PO, time 8, LLOQ 3 ng/mL, 300 mg/kg): 5.25 ng/mL and 7.14 ng/mL
- Whole Blood Conc. of compound 2 ([2]; single 300 mg/kg RE-024-02 PO, time 8, LLOQ 10.2 nM, 300 mg/kg): 17.78 nM and 24.18 nM
- Whole Blood Conc. of compound 2 ([2]; single 700 mg/kg RE-024-02 PO, time 0.5, LLOQ 3 ng/mL, 700 mg/kg): 247.20 ng/mL and 285.00 ng/mL
- Whole Blood Conc. of compound 2 ([2]; single 700 mg/kg RE-024-02 PO, time 0.5, LLOQ 10.2 nM, 700 mg/kg): 837.31 nM and 965.35 nM
- Whole Blood Conc. of compound 2 ([2]; single 700 mg/kg RE-024-02 PO, time 2, LLOQ 3 ng/mL, 700 mg/kg): 61.80 ng/mL and 118.20 ng/mL
- Whole Blood Conc. of compound 2 ([2]; single 700 mg/kg RE-024-02 PO, time 2, LLOQ 10.2 nM, 700 mg/kg): 209.33 nM and 400.37 nM
- concentration at 4 h ([2]; 100 mg/kg, single 100 mg/kg RE-024-02 PO, time 4, LLOQ 3 ng/mL): 5.57 ng/mL
- concentration at 4 h ([2]; 100 mg/kg, single 100 mg/kg RE-024-02 PO, time 4, LLOQ 10.2 nM): 18.9 nM
- concentration at 8 h ([2]; 100 mg/kg, single 100 mg/kg RE-024-02 PO, time 8, LLOQ 3 ng/mL): 6.42 ng/mL
- concentration at 8 h ([2]; 100 mg/kg, single 100 mg/kg RE-024-02 PO, time 8, LLOQ 10.2 nM): 21.8 nM
- concentration at 2 h ([2]; 300 mg/kg, single 300 mg/kg RE-024-02 PO, time 2, LLOQ 10.2 nM): 258 nM
- concentration at 8 h ([2]; 300 mg/kg, single 300 mg/kg RE-024-02 PO, time 8, LLOQ 3 ng/mL): 9.36 ng/mL
- concentration at 8 h ([2]; 300 mg/kg, single 300 mg/kg RE-024-02 PO, time 8, LLOQ 10.2 nM): 31.7 nM
- concentration at 2 h ([2]; male, 300 mg/kg, single 300 mg/kg RE-024-02 PO, time 2, LLOQ 3 ng/mL): 76.2 ng/mL
- concentration at 0.5 h ([2]; male, 700 mg/kg, single 700 mg/kg RE-024-02 PO, time 0.5, LLOQ 3 ng/mL): 452 ng/mL
- concentration at 0.5 h ([2]; male, 700 mg/kg, single 700 mg/kg RE-024-02 PO, time 0.5, LLOQ 10.2 nM): 1530 nM
- concentration at 2 h ([2]; male, 700 mg/kg, single 700 mg/kg RE-024-02 PO, time 2, LLOQ 3 ng/mL): 105 ng/mL
- concentration at 2 h ([2]; male, 700 mg/kg, single 700 mg/kg RE-024-02 PO, time 2, LLOQ 10.2 nM): 356 nM
- % Parent AUCAll ([3]; 100 mg/kg PO): 8,550%
- % Parent AUCAll ([3]; 300 mg/kg PO): 29,800%
- % Parent AUCAll ([3]; 700 mg/kg PO): 7,220%
- Whole Blood Conc. of compound 2 ([3]; single 300 mg/kg RE-024-02 PO, 0.333 hr, LLOQ 3 ng/mL, 300 mg/kg): 495 ng/mL and 550.2 ng/mL and 391.2 ng/mL
- Whole Blood Conc. of compound 2 ([3]; single 300 mg/kg RE-024-02 PO, 0.333 hr, LLOQ 10.2 nM, 300 mg/kg): 1676.7 nM and 1863.6 nM and 1325.1 nM
- Whole Blood Conc. of compound 2 ([3]; single 300 mg/kg RE-024-02 PO, 0.5 hr, LLOQ 3 ng/mL, 300 mg/kg): 472.2 ng/mL and 328.2 ng/mL and 282 ng/mL
- Whole Blood Conc. of compound 2 ([3]; single 300 mg/kg RE-024-02 PO, 0.5 hr, LLOQ 10.2 nM, 300 mg/kg): 1599.4 nM and 1111.7 nM and 955.2 nM
- Whole Blood Conc. of compound 2 ([3]; single 300 mg/kg RE-024-02 PO, 4 hr, LLOQ 3 ng/mL, 300 mg/kg): 15.4 ng/mL and 22.8 ng/mL and 26.2 ng/mL
- Whole Blood Conc. of compound 2 ([3]; single 300 mg/kg RE-024-02 PO, 4 hr, LLOQ 10.2 nM, 300 mg/kg): 52.2 nM and 77.2 nM and 88.6 nM
- Whole Blood Conc. of compound 2 ([3]; single 700 mg/kg RE-024-02 PO, 0.333 hr, LLOQ 3 ng/mL, 700 mg/kg): 1656 ng/mL
- Whole Blood Conc. of compound 2 ([3]; single 700 mg/kg RE-024-02 PO, 0.333 hr, LLOQ 10.2 nM, 700 mg/kg): 5609.2 nM
- Whole Blood Conc. of compound 2 ([3]; single 700 mg/kg RE-024-02 PO, 1 hr, LLOQ 3 ng/mL, 700 mg/kg): 318 ng/mL and 373.2 ng/mL and 381 ng/mL
- Whole Blood Conc. of compound 2 ([3]; single 700 mg/kg RE-024-02 PO, 1 hr, LLOQ 10.2 nM, 700 mg/kg): 1077.1 nM and 1264.1 nM and 1290.5 nM
- Whole Blood Conc. of compound 2 ([3]; single 700 mg/kg RE-024-02 PO, 4 hr, LLOQ 3 ng/mL, 700 mg/kg): 84 ng/mL and 92.4 ng/mL and 88.2 ng/mL
- Whole Blood Conc. of compound 2 ([3]; single 700 mg/kg RE-024-02 PO, 4 hr, LLOQ 10.2 nM, 700 mg/kg): 284.5 nM and 313 nM and 298.8 nM
- concentration at 0.083 h [3, 4]: 17.4 ng/mL
- concentration at 0.083 h [3, 5]: 58.9 nM
- concentration at 2 h [3, 4]: 5.1 ng/mL
- concentration at 2 h [3, 5]: 17.3 nM
- concentration at 4 h ([3]; 100 mg/kg, single 100 mg/kg RE-024-02 PO, 4 hr, LLOQ 3 ng/mL): 3.5 ng/mL
- concentration at 4 h ([3]; 100 mg/kg, single 100 mg/kg RE-024-02 PO, 4 hr, LLOQ 10.2 nM): 11.7 nM
- concentration at 8 h [3, 4]: 3.5 ng/mL
- concentration at 8 h [3, 5]: 11.9 nM
- concentration at 0.333 h ([3]; 300 mg/kg, single 300 mg/kg RE-024-02 PO, 0.333 hr, LLOQ 3 ng/mL): 443 ng/mL
- concentration at 0.333 h ([3]; 300 mg/kg, single 300 mg/kg RE-024-02 PO, 0.333 hr, LLOQ 10.2 nM): 1500 nM
- concentration at 0.5 h ([3]; 300 mg/kg, single 300 mg/kg RE-024-02 PO, 0.5 hr, LLOQ 3 ng/mL): 254 ng/mL
- concentration at 0.5 h ([3]; 300 mg/kg, single 300 mg/kg RE-024-02 PO, 0.5 hr, LLOQ 10.2 nM): 860 nM
- concentration at 4 h ([3]; 300 mg/kg, single 300 mg/kg RE-024-02 PO, 4 hr, LLOQ 3 ng/mL): 21.9 ng/mL
- concentration at 4 h ([3]; 300 mg/kg, single 300 mg/kg RE-024-02 PO, 4 hr, LLOQ 10.2 nM): 74.2 nM
- concentration at 0.333 h ([3]; 700 mg/kg, single 700 mg/kg RE-024-02 PO, 0.333 hr, LLOQ 3 ng/mL): 1910 ng/mL
- concentration at 0.333 h ([3]; 700 mg/kg, single 700 mg/kg RE-024-02 PO, 0.333 hr, LLOQ 10.2 nM): 6460 nM
- concentration at 1 h ([3]; 700 mg/kg, single 700 mg/kg RE-024-02 PO, 1 hr, LLOQ 3 ng/mL): 541 ng/mL
- concentration at 1 h ([3]; 700 mg/kg, single 700 mg/kg RE-024-02 PO, 1 hr, LLOQ 10.2 nM): 1830 nM
- concentration at 4 h ([3]; 700 mg/kg, single 700 mg/kg RE-024-02 PO, 4 hr, LLOQ 3 ng/mL): 104 ng/mL
- concentration at 4 h ([3]; 700 mg/kg, single 700 mg/kg RE-024-02 PO, 4 hr, LLOQ 10.2 nM): 354 nM

From publication PMC5844530, “Fosmetpantotenate (RE-024), a phosphopantothenate replacement therapy for pantothenate kinase-associated neurodegeneration: Mechanism of action and efficacy in nonclinical models” (PLoS ONE, 2018)
